Experimental data as given in patent publication US4874760A, “4,7-dihydroisothiazolo(5,4-b)pyridine derivatives and cardiovascular treating agents containing said derivatives” (Toa Eiyo, Ltd., priority 1987, dated 1989).
Read-outs that look alike come from different tables or passages of the source.

Columns and labels:
[1] = test system: KCl-induced contraction of helical blood vessel specimen (artery); assay: Test on calcium antagonizing activity (KCl-induced contraction of helical blood vessel specimen); set-up: species or system rabbit; settings: contraction height at 40 mM KCl taken as 100%, 10 minutes after test compound, 37° C., read-out: ED50 (concentration which inhibits the contraction height of the control to an extent of 50%)
Method: Female and male rabbits weighing 2 to 3 kg were used. They were anesthetized by intravenous injection of pentobarbital sodium, and sacrificed by bleeding from the femoral arteries. Immediately then, the artery was extracted from the chest, and a helical blood vessel specimen was prepared.

[2] = test system: systolic blood pressure, spontaneously hypertensive rats; assay: Antihypertensive activity test; format: in vivo, rat (male spontaneously hypertensive); settings: oral
Description: Variations in systolic blood pressure were periodically measured by a programmed electrosphygmomanometer-type blood pressure measuring device (NARCO, PE-300).

Row | Structure (SMILES) | IC50 ([1]; 10 min) | Systolic blood pressure (maximum variation) ([2]; 1 mg/kg) | Systolic blood pressure (maximum variation) ([2]; 3 mg/kg) | Systolic blood pressure (maximum variation) ([2]; 10 mg/kg) | IC50 ([1]; Oryctolagus cuniculus, 10 min) | Systolic blood pressure (maximum variation) ([2]; 30 mg/kg) | IC50 [1]
1 | CCOC(=O)C1=C(C)Nc2snc(CCN3CCN(c4ccccc4)CC3)c2C1c1cccc([N+](=O)[O-])c1 (single isomer, unassigned; (+)) [Ig, (+)-ethyl 3-[2-(4-phenyl-1-piperazinyl)ethyl]-6-methyl-4-(3-nitrophenyl)-4,7-dihydroisothiazolo[5,4-b]pyridine-5-carboxylate] | > 300 nM | – | – | – | – | – | –
2 | CCOC(=O)C1=C(C)Nc2snc(CCN3CCN(c4ccccc4)CC3)c2C1c1cccc([N+](=O)[O-])c1 (single isomer, unassigned; (-)) [Ih, (-)-ethyl 3-[2-(4-phenyl-1-piperazinyl)ethyl]-6-methyl-4-(3-nitrophenyl)-4,7-dihydroisothiazolo[5,4-b]pyridine-5-carboxylate] | 25 nM | -36 mmHg | -93 mmHg | -137 mmHg | – | – | –
3 | CCOC(=O)C1=C(C)Nc2snc(CN(C)CCc3ccc(OC)c(OC)c3)c2C1c1cccc([N+](=O)[O-])c1 (centres unmarked) [Ia, ethyl 3-[N-(2-(3,4-dimethoxyphenyl)ethyl)-N-methylaminomethyl]-6-methyl-4-(3-nitrophenyl)-4,7-dihydroisothiazolo[5,4-b]pyridine-5-carboxylate] | – | -6 mmHg | -26 mmHg | -82 mmHg | 60 nM | -119 mmHg | –
4 | CCOC(=O)C1=C(C)Nc2snc(CN(C)CCCOc3cccc(OC)c3)c2C1c1cccc([N+](=O)[O-])c1 (centres unmarked) [Ib, ethyl 3-[N-(3-(3-methoxyphenoxy)propyl)-N-methylaminomethyl]-6-methyl-4-(3-nitrophenyl)-4,7-dihydroisothiazolo[5,4-b]pyridine-5-carboxylate] | – | – | -30 mmHg | -76 mmHg | 62 nM | -108 mmHg | –
5 | COc1ccc(CCN(C)Cc2nsc3c2C(c2cccc([N+](=O)[O-])c2)C(C(=O)OCCN(C)Cc2ccccc2)=C(C)N3)cc1OC (centres unmarked) [Ic, 2-(N-benzyl-N-methylamino)ethyl 3-[N-(2-(3,4-dimethoxyphenyl)ethyl)-N-methylaminomethyl]-6-methyl-4-(3-nitrophenyl)-4,7-dihydroisothiazolo[5,4-b]pyridine-5-carboxylate] | – | – | -37 mmHg | -92 mmHg | 225 nM | -135 mmHg | –
6 | CC1=C(C(=O)OCCN(C)Cc2ccccc2)C(c2cccc([N+](=O)[O-])c2)c2c(CN3CCN(c4ccc(F)cc4)CC3)nsc2N1 (centres unmarked) [Id, 2-(N-benzyl-N-methylamino)ethyl 3-[4-(4-fluorophenyl)-1-piperazinylmethyl]-6-methyl-4-(3-nitrophenyl)-4,7-dihydroisothiazolo[5,4-b]pyridine-5-carboxylate] | – | -30 mmHg | -65 mmHg | -132 mmHg | > 300 nM | -142 mmHg | –
7 | CCOC(=O)C1=C(C)Nc2snc(CCN3CCN(c4ccccc4)CC3)c2C1c1cccc([N+](=O)[O-])c1 (centres unmarked) [Ie, ethyl 3-[2-(4-phenyl-1-piperazinyl)ethyl]-6-methyl-4-(3-nitrophenyl)-4,7-dihydroisodithiazolo[5,4-b]pyridine-5-carboxylate] | – | -41 mmHg | -51 mmHg | -101 mmHg | 33 nM | – | –
8 | CCOC(=O)C1=C(C)Nc2snc(CCN3CCN(c4ccc(F)cc4)CC3)c2C1c1cccc([N+](=O)[O-])c1 (centres unmarked) [If, ethyl 3-[2-(4-(4-fluorophenyl)-1-piperazinyl)ethyl]-6-methyl-4-(3-nitrophenyl)-4,7-dihyhdroisothiazolo[5,4-b]pyridine-5-carboxylate] | – | -47 mmHg | -54 mmHg | -102 mmHg | – | – | 63.8 nM
9 | COC(=O)C1=C(C)NC(C)=C(C(=O)OC)C1c1ccccc1[N+](=O)[O-] [Nifedipine, reference compound] | – | -29 mmHg | -42 mmHg | -71 mmHg | 19.6 nM | – | –
